For one test, the target named is T1, hERG (Homo sapiens, UniProt Q12809).
T1 construct: purchased ThermoFisher
Put plainly: Biochemical assay for hERG inhibition (Predictor hERG Fluorescence Polarization Assay Kit). The format is binding. Here is the method: Test Example 3: Biochemical Assay for hERG Inhibition
kit: Predictor™ hERG Fluorescence Polarization Assay Kit (ThermoFisher) containing:
Compound E4031 as a positive control;
tracer concentration: 1 nM;
incubation duration: 2 hours;
parameters for microplate reader: BMG PHERAstar FS fluorescence microplate reader.
Test group: The test compounds at different concentrations were added into a microplate containing hERG cell membrane, and the tracer with a high affinity for hERG was then added into each well. The microplate was incubated at 25° C. for 2 hours before detection of the change in fluorescence polarization value (mP) (excitation wavelength: 540 nm; emission wavelength: 590 nm) using a multi-mode microplate reader.
Positive control group: The experimental method for the positive control group was the same as that for the test group, except that the test compound was replaced with 30 μM Compound E4031.
Blank control group: The experimental method for the blank control group was the same as that for the test group, except that the test compound was replaced with the hERG buffer and that the hERG cell membrane was not added.
Based on the data ratios, the percentage inhibition (%) of the compounds of the present disclosure against hERG at different concentrations was calculated and the range of the half maximal inhibitory concentration (IC50) of the compounds was determined. Percentage inhibition (%)=(1−(mP of the test compound−mP of the positive control group)/(mP of the blank control group−mP of the positive control group))×100%.

The target of a further test is T2, CYP3A4 (Homo sapiens, UniProt P08684).
T2 construct: purchased Promega
Put plainly: Biochemical assay for CYP enzyme inhibition, P450-Glo CYP3A4 Screening System. The format is in vitro ADME. Here is the method: (§1) Test Example 5: Biochemical Assay for CYP Enzyme (Cytochrome P450) Inhibition
P450-Glo™ CYP3A4 Screening System, (Promega).
(§2) BMG PHERAstar FS Luminescent.
(§3) The experiments were carried out separately according to the instructions of the kits. The steps were as follows:
3.3. Inhibition Against CYP3A4:
Test group: The test compounds at different concentrations were added into a microplate, and Luciferin-IPA ([…]), K3PO4 (100 mM), and CYP3A4 (2 nM) were added into each well, and pre-incubated at room temperature for 10 min. Thereafter, an NADPH regeneration system was added. The mixture was reacted at room temperature for 30 min. Finally, an equal volume of detection buffer was added and incubated at room temperature for 20 min, followed by chemiluminescence detection.
(§4) Negative control group: The experimental method for the negative control group was the same as that for the test group, except that the test compound was not added.
Blank control group: The experimental method for the blank control group was the same as that for the test group, except that the test compound was not added and that CYP3A4 was replaced with CYP3A4 Membrance (2 nM).
(§5) Percentage inhibition=(1−(the chemiluminescent signal value of the test compound group at a certain test concentration−the chemiluminescent signal value of the blank control group)/(the chemiluminescent signal value of the negative control group−the chemiluminescent signal value of the blank control group))×100%.
(§6) When the percentage inhibition was between 30% and 80%, a single value or a value range of the half maximal inhibitory concentration (IC50) of the compound against the CYP enzyme was estimated based on the following equation: IC50=X×(1−percentage inhibition)/percentage inhibition, wherein X was the test concentration of the compound.

Test [1] concerns KYSE-520 cell (human esophageal squamous cell carcinoma cell). Put plainly: Inhibition of the proliferation activity of KYSE-520 cell (CellTiter-Glo). The format is cell-based. As to conditions: 120 h, KYSE-520 cell proliferation, 5 days. The protocol:
Test Example 2: Experiment on the Inhibition of the Proliferation Activity of KYSE-520 Cell (Human Esophageal Squamous Cell Carcinoma Cell)
cell: KYSE-520 (JCRB Cell Bank);
kit: CellTiter-Glo® Luminescent Cell Viability Assay Kit (Promega).
inoculation amount of cell: 1500 cells/well;
incubation conditions for compound: 37° C., 5% CO2;
incubation duration: 5 days;
detecting temperature: room temperature;
chemiluminescence detection using the BMG PHERAstar FS reader.
Cells were cultured in a medium containing 10% fetal bovine serum under the culture conditions of 37° C. and 5% CO2. An appropriate amount of cells were plated into a 96-well plate and cultured overnight in an incubator to allow the cells to adhere to the wall. The following day, the medium was removed and a complete medium containing a pre-diluted compound was added and incubated at 37° C. for 5 days. On the fifth day, the detection reagent CellTiter-Glo® was added into each well. Chemiluminescence was adopted to detect the relative luminescence units (RLUs) of the wells.
The result of a well containing cell-free medium, treated with CellTiter-Glo®, was obtained as the blank value. Cell viability (%)=(sample RLU−blank RLU)/(vehicle RLU−blank RLU)×100%, and maximum inhibition rate (%)=100%−cell viabilitymax. conc. (%). The half maximal inhibitory concentration (IC50) of the compound was calculated by fitting the curve according to the four-parameter logistic model.
Background: ATP-based viability assays read luminescence as a measure of living cells.

A further test concerns the target T3, CYP2D6 (Homo sapiens, UniProt P10635).
T3 construct: purchased Promega
Put plainly: Biochemical assay for CYP enzyme inhibition, P450-Glo CYP2D6 Screening System. Format: in vitro ADME. The protocol:
as §1
P450-Glo™ CYP2D6 Screening System, (Promega);
as §2, §3
3.2. Inhibition Against CYP2D6:
Test group: The test compounds at different concentrations were added into a microplate, and Luciferin-ME EGE (3 μM), K3PO4 (100 mM), and CYP2D6 (5 nM) were added into each well, and pre-incubated at room temperature for 10 min. Thereafter, an NADPH regeneration system was added. The mixture was reacted at 37° C. for 30 min. Finally, an equal volume of detection buffer was added and incubated at room temperature for 20 min, followed by chemiluminescence detection.
as §4
Blank control group: The experimental method for the blank control group was the same as that for the test group, except that the test compound was not added and that CYP2D6 was replaced with CYP2D6 Membrance (5 nM).
as §5, §6

The mark [2] stands for this setting: estimated from percentage inhibition, read-out: IC50 (μM) CYP3A4.
[3] abbreviates: estimated from percentage inhibition, read-out: IC50 (μM) CYP2D6.

Read-outs that look alike come from different tables or passages of the source. Where only a bound is given, the exact number is not on record here.

T2 sequence (P08684 whole entry): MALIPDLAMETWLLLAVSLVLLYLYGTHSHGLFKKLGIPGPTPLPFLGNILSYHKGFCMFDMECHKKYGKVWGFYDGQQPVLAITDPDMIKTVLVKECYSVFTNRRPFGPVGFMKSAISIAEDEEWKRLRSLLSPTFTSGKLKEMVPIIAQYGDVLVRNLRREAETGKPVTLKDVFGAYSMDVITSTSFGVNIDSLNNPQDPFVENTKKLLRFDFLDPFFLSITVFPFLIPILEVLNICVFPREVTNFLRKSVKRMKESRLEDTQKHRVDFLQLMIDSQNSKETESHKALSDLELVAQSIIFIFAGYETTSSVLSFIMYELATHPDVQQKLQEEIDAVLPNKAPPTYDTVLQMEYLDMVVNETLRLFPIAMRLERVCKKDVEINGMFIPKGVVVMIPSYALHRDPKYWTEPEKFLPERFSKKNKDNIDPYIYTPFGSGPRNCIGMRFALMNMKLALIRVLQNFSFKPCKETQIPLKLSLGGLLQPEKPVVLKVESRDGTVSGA
T3 sequence (P10635 whole entry): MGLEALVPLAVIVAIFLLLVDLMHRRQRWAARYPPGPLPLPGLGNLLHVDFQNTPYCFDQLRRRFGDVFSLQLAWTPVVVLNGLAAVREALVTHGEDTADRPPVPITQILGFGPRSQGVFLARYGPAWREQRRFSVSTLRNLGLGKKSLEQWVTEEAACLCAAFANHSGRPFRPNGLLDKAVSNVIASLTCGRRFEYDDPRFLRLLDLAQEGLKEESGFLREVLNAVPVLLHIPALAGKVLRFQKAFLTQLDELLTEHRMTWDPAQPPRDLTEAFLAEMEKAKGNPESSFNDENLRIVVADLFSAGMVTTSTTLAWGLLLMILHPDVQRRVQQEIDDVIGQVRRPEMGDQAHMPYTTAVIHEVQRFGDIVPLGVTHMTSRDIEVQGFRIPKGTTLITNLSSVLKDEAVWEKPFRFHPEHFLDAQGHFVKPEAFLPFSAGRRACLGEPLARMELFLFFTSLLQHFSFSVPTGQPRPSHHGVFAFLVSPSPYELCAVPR
T1 sequence (Q12809 whole entry): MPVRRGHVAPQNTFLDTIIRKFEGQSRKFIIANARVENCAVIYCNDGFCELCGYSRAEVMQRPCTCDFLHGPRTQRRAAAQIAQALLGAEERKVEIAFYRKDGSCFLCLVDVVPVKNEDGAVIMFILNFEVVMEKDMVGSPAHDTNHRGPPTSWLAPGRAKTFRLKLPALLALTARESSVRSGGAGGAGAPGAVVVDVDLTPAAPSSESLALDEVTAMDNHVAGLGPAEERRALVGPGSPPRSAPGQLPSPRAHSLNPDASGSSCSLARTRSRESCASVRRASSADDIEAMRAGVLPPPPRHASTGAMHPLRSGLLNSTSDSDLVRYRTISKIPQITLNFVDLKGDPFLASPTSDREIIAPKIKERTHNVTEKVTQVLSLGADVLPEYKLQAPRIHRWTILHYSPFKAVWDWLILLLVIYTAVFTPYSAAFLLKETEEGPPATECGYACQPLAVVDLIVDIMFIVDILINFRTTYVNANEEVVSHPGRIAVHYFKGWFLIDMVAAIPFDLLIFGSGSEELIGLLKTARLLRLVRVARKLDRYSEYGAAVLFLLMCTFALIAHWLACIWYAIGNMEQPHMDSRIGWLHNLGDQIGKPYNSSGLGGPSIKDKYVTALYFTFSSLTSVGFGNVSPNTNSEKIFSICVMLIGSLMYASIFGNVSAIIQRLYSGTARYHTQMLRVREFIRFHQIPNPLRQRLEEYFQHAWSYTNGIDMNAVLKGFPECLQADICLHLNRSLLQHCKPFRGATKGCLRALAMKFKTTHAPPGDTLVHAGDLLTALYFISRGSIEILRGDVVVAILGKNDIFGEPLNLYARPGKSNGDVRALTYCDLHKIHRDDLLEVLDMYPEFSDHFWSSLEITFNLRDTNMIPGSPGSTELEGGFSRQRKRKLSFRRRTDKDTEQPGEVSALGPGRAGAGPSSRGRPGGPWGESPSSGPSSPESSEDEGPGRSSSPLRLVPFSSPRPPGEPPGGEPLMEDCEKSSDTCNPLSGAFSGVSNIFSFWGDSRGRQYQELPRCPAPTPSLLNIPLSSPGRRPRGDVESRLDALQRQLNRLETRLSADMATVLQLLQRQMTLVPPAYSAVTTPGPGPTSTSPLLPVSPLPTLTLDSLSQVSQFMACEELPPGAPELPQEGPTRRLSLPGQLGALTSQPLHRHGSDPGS

As a reminder, the IC50 is the concentration that inhibits the measured activity by half. In the case of `C[C@@H]1OCC2(CCN(c3ncc(Sc4ccnc(N5CCCC5CC(N)=O)c4Cl)nc3CO)CC2)[C@@H]1N` (stereo partly drawn) [Example 19, 2-(1-(4-(5-((3S,4S)-4-amino-3-methyl-2-oxa-8-azaspiro[4.5]decan-8-yl)-6-(hydroxymethyl)pyrazin-2-ylthio)-3-chloropyridin-2-yl)pyrrolidin-2-yl)acetamide], the IC50 at hERG was more than 10 µM; on CYP3A4 (setting [2]), more than 10 µM; in test [1] it was 0.19 µM; at CYP2D6 (setting [3]) it was more than 10 µM.
Turning to `CC(C)(O)C1CN(c2nccc(Sc3cnc(N4CCC5(CC4)Oc4ccccc4[C@H]5N)c(CO)n3)c2Cl)C1` [Example 22, (R)-2-(1-(4-(5-(3-amino-3H-spiro[benzofuran-2,4′-piperidin]-1′-yl)-6-(hydroxymethyl)pyrazin-2-ylthio)-3-chloropyridin-2-yl)azetidin-3-yl)propan-2-ol], the IC50 on CYP3A4 (setting [2]) is more than 10 µM; in test [1], 0.05 µM; on CYP2D6 (setting [3]), more than 10 µM.
For `Cc1nc(N2CCC3(CC2)CO[C@@H](C)[C@H]3N)c(CO)nc1Sc1ccnc(N2CCCC2CO)c1Cl` (some centres unmarked) [Example 1], the IC50 is more than 10 µM on CYP3A4, 0.36 µM in test [1] and more than 10 µM at CYP2D6.
As for `CC(O)C1CN(c2nccc(Sc3cnc(N4CCC5(CC4)CO[C@@H](C)[C@H]5N)c(CO)n3)c2Cl)C1` (stereo partly drawn) [Example 17, 1-(1-(4-(5-((3S,4S)-4-amino-3-methyl-2-oxa-8-azaspiro[4.5]decan-8-yl)-6-(hydroxymethyl)pyrazin-2-ylthio)-3-chloropyridin-2-yl)azetidin-3-yl)ethan-1-ol], the results for the IC50 (on CYP3A4; in test [1]; at CYP2D6) were more than 10 µM, 0.03 µM and more than 10 µM, respectively.
With `C[C@@H]1OCC2(CCN(c3ncc(Sc4ccnc(N5CC(CC#N)C5)c4Cl)nc3CO)CC2)[C@@H]1N` [Example 5, 2-(1-(4-(5-((3S,4S)-4-amino-3-methyl-2-oxa-8-azaspiro[4.5]decan-8-yl)-6-(hydroxymethyl)pyrazin-2-ylthio)-3-chloropyridin-2-yl)azetidin-3-yl)acetonitrile], the concentration for half-maximal inhibition (IC50) is more than 10 µM at CYP3A4, 0.06 µM in test [1] and more than 10 µM at CYP2D6.
For the molecule `Cc1nc(N2CCC3(CC2)CO[C@@H](C)[C@H]3N)c(CO)nc1Sc1ccnc(N2CC(CS(C)(=O)=O)C2)c1Cl` [Example 25, (3-((3S,4S)-4-amino-3-methyl-2-oxa-8-azaspiro[4.5]decan-8-yl)-6-(3-chloro-2-(3-(methylsulfonylmethyl)azetidin-1-yl)pyridin-4-ylthio)-5-methylpyrazin-2-yl)methanol], the half-maximal inhibitory concentration (IC50) on hERG, against CYP3A4 and at CYP2D6 was more than 10 µM in each case.
For the molecule `C[C@@H]1OCC2(CCN(c3cnc(Sc4ccnc(N5CC(C(C)(C)O)C5)c4Cl)cn3)CC2)[C@@H]1N` [Example 28, 2-(1-(4-(5-((3S,4S)-4-amino-3-methyl-2-oxa-8-azaspiro[4.5]decan-8-yl)pyrazin-2-ylthio)-3-chloropyridin-2-yl)azetidin-3-yl)propan-2-ol], the IC50 on hERG, on CYP3A4 and against CYP2D6 was more than 10 µM in each case.
Turning to `C[C@@H]1OCC2(CCN(c3ncc(Sc4ccnc(N5CC(CO)C5)c4Cl)nc3CO)CC2)[C@@H]1N` [Example 6, (3-((3S,4S)-4-amino-3-methyl-2-oxa-8-azaspiro[4.5]decan-8-yl)-6-(3-chloro-2-(3-(hydroxymethyl)azetidin-1-yl)pyridin-4-ylthio)pyrazin-2-yl)methanol], the IC50 on CYP3A4 is more than 10 µM; in test [1], 0.04 µM; at CYP2D6 it was more than 10 µM.
As for `COCC1CN(c2nccc(Sc3cnc(N4CCC5(CC4)CO[C@@H](C)[C@H]5N)c(CO)n3)c2Cl)C1` [Example 21, (3-((3S,4S)-4-amino-3-methyl-2-oxa-8-azaspiro[4.5]decan-8-yl)-6-(3-chloro-2-(3-(methoxymethyl)azetidin-1-yl)pyridin-4-ylthio)pyrazin-2-yl)methanol], the half-inhibitory concentration (IC50) against CYP3A4 is more than 10 µM; in test [1], 0.11 µM; on CYP2D6, more than 10 µM.
With `C[C@@H]1OCC2(CCN(c3ncc(Sc4ccnc(NCC5(O)CC5)c4Cl)nc3CO)CC2)[C@@H]1N` [Example 15, 1-((4-(5-((3S,4S)-4-amino-3-methyl-2-oxa-8-azaspiro[4.5]decan-8-yl)-6-(hydroxymethyl)pyrazin-2-ylthio)-3-chloropyridin-2-ylamino)methyl)cyclopropan-1-ol], the IC50 on hERG is more than 10 µM; at CYP3A4 it was more than 10 µM; in test [1], 0.04 µM; on CYP2D6, more than 10 µM.
On to `C[C@@H]1OCC2(CCN(c3ncc(Sc4ccnc(N5CC(C(C)(C)O)C5)c4F)nc3CO)CC2)[C@@H]1N` [Example 40, 2-(1-(4-(5-((3S,4S)-4-amino-3-methyl-2-oxa-8-azaspiro[4.5]decan-8-yl)-6-(hydroxymethyl)pyrazin-2-ylthio)-3-fluoropyridin-2-yl)azetidin-3-yl)propan-2-ol], for which the IC50 at hERG, on CYP3A4 and at CYP2D6 was more than 10 µM throughout.
With `CC(C)(O)C1CN(c2nccc(Sc3cnc(N4CCC5(CC4)Cc4ncccc4[C@H]5N)c(CO)n3)c2Cl)C1` [Example 43, (S)-2-(1-(4-(5-(5-amino-5,7-dihydrospiro[cyclopenta[b]pyridine-6,4′-piperidin]-1′-yl)-6-(hydroxymethyl)pyrazin-2-ylthio)-3-chloropyridin-2-yl)azetidin-3-yl)propan-2-ol], the figures for the 50% inhibitory concentration (IC50) (at CYP3A4 (setting [2]); in test [1]; on CYP2D6 (setting [3])) were more than 10 µM, 0.04 µM and more than 10 µM, respectively.
In the case of `CC(C)(O)C1CN(c2nccc(Sc3cnc(N4CCC5(CC4)COC[C@H]5N)c(CO)n3)c2Cl)C1` [Example 13, (S)-2-(1-(4-(5-(4-amino-2-oxa-8-azaspiro[4.5]decan-8-yl)-6-(hydroxymethyl)pyrazin-2-ylthio)-3-chloropyridin-2-yl)azetidin-3-yl)propan-2-ol], the concentration for half-maximal inhibition (IC50) on hERG, at CYP3A4 (setting [2]) and on CYP2D6 (setting [3]) was more than 10 µM throughout.
For `CC(C)(O)C1CN(c2nccc(Sc3cnc(N4CCC5(CC4)Cc4ccccc4[C@H]5N)c(CO)n3)c2Cl)C1` [Example 23, (S)-2-(1-(4-(5-(1-amino-1,3-dihydrospiro[indene-2,4′-piperidin]-1′-yl)-6-(hydroxymethyl)pyrazin-2-ylthio)-3-chloropyridin-2-yl)azetidin-3-yl)propan-2-ol], the results for the IC50 (at CYP3A4 (setting [2]); in test [1]; at CYP2D6 (setting [3])) were more than 10 µM, 0.14 µM and more than 10 µM, respectively.

The values above are taken from patent US20230212180A1, “SUBSTITUTED PYRAZINE COMPOUND, PHARMACEUTICAL COMPOSITION COMPRISING SAME, AND USE THEREOF” (Sichuan Kelun-Biotech Biopharmaceutical Co., Ltd., priority 2020, published 2023).
